In the NIST ThermoML archive (doi:10.1016/j.tca.2012.01.007):
Numbers after ± are expanded uncertainties.

Assay: wn = mass fraction of the nth substance listed
Details: 101 kPa, Liquid, Vibrating tube method

OCCNCCO [diethanolamine] + CCO
Details	mass density [kg/m3]
278.14 K, w1 = 0.1	827.791 ± 0.12
278.14 K, w1 = 1	1107.05 ± 0.32
278.15 K, w1 = 0.1999	854.007 ± 0.13
278.15 K, w1 = 0.3	881.862 ± 0.15
278.15 K, w1 = 0.3999	910.002 ± 0.17
278.15 K, w1 = 0.5001	939.811 ± 0.2
278.15 K, w1 = 0.5998	970.814 ± 0.19
278.15 K, w1 = 0.7002	1004.37 ± 0.19
278.15 K, w1 = 0.8001	1037.46 ± 0.21
278.15 K, w1 = 0.8417	1051.46 ± 0.23
278.15 K, w1 = 0.8997	1071.67 ± 0.26
283.14 K, w1 = 0.1	823.639 ± 0.13
283.14 K, w1 = 0.1999	849.953 ± 0.13
283.14 K, w1 = 0.3	877.917 ± 0.15
283.14 K, w1 = 1	1103.88 ± 0.31
283.15 K, w1 = 0.3999	906.254 ± 0.17
283.15 K, w1 = 0.5001	936.053 ± 0.2
283.15 K, w1 = 0.5998	967.135 ± 0.19
283.15 K, w1 = 0.7002	1000.78 ± 0.19
283.15 K, w1 = 0.8001	1034 ± 0.21
283.15 K, w1 = 0.8417	1048.09 ± 0.23
283.15 K, w1 = 0.8997	1068.38 ± 0.26
293.14 K, w1 = 0.1	815.297 ± 0.13
293.14 K, w1 = 0.1999	841.801 ± 0.14
293.14 K, w1 = 0.3	869.969 ± 0.15
293.14 K, w1 = 0.5998	959.776 ± 0.19
293.14 K, w1 = 0.8997	1061.73 ± 0.25
293.15 K, w1 = 0.3999	898.495 ± 0.17
293.15 K, w1 = 0.5001	928.504 ± 0.2
293.15 K, w1 = 0.7002	993.608 ± 0.19
293.15 K, w1 = 0.8001	1027.03 ± 0.21
293.15 K, w1 = 0.8417	1041.24 ± 0.23
293.15 K, w1 = 1	1097.51 ± 0.31
303.14 K, w1 = 0.1	806.876 ± 0.13
303.14 K, w1 = 0.3	861.949 ± 0.15
303.14 K, w1 = 1	1091.06 ± 0.3
303.15 K, w1 = 0.1999	833.564 ± 0.14
303.15 K, w1 = 0.3999	890.674 ± 0.18
303.15 K, w1 = 0.5001	920.9 ± 0.21
303.15 K, w1 = 0.5998	952.376 ± 0.2
303.15 K, w1 = 0.7002	986.404 ± 0.19
303.15 K, w1 = 0.8001	1020.01 ± 0.2
303.15 K, w1 = 0.8417	1034.3 ± 0.22
303.15 K, w1 = 0.8997	1054.97 ± 0.25
313.14 K, w1 = 0.1	798.332 ± 0.14
313.14 K, w1 = 0.3	853.824 ± 0.16
313.14 K, w1 = 1	1084.49 ± 0.3
313.15 K, w1 = 0.1999	825.235 ± 0.14
313.15 K, w1 = 0.3999	882.762 ± 0.18
313.15 K, w1 = 0.5001	913.212 ± 0.21
313.15 K, w1 = 0.5998	944.908 ± 0.2
313.15 K, w1 = 0.7002	979.15 ± 0.19
313.15 K, w1 = 0.8001	1012.95 ± 0.2
313.15 K, w1 = 0.8417	1027.32 ± 0.22
313.15 K, w1 = 0.8997	1048.11 ± 0.24
323.14 K, w1 = 0.1	789.624 ± 0.14
323.14 K, w1 = 0.1999	816.75 ± 0.14
323.14 K, w1 = 0.3	845.563 ± 0.16
323.14 K, w1 = 0.7002	971.82 ± 0.19
323.14 K, w1 = 1	1077.78 ± 0.29
323.15 K, w1 = 0.3999	874.726 ± 0.18
323.15 K, w1 = 0.5998	937.339 ± 0.2
323.15 K, w1 = 0.8001	1005.75 ± 0.2
323.15 K, w1 = 0.8417	1020.28 ± 0.21
323.15 K, w1 = 0.8997	1041.21 ± 0.24
323.16 K, w1 = 0.5001	905.4 ± 0.21
333.14 K, w1 = 0.1	780.704 ± 0.14
333.14 K, w1 = 0.1999	808.075 ± 0.15
333.14 K, w1 = 0.3	837.129 ± 0.16
333.14 K, w1 = 1	1071 ± 0.29
333.15 K, w1 = 0.3999	866.54 ± 0.18
333.15 K, w1 = 0.5001	897.474 ± 0.21
333.15 K, w1 = 0.5998	929.643 ± 0.2
333.15 K, w1 = 0.7002	964.37 ± 0.19
333.15 K, w1 = 0.8001	998.264 ± 0.19
333.15 K, w1 = 0.8417	1013.15 ± 0.21
333.15 K, w1 = 0.8997	1034.23 ± 0.23
343.14 K, w1 = 0.1	771.521 ± 0.15
343.14 K, w1 = 0.1999	799.163 ± 0.15
343.14 K, w1 = 0.3	828.477 ± 0.17
343.14 K, w1 = 0.5001	889.372 ± 0.22
343.14 K, w1 = 0.8997	1027.15 ± 0.23
343.14 K, w1 = 1	1064.14 ± 0.28
343.15 K, w1 = 0.3999	858.164 ± 0.19
343.15 K, w1 = 0.5998	921.798 ± 0.2
343.15 K, w1 = 0.7002	956.784 ± 0.2
343.15 K, w1 = 0.8001	990.826 ± 0.19
343.15 K, w1 = 0.8417	1005.84 ± 0.2
348.14 K, w1 = 0.1	766.805 ± 0.15
348.14 K, w1 = 0.1999	794.6 ± 0.15
348.14 K, w1 = 0.3	824.049 ± 0.17
348.14 K, w1 = 0.5998	917.813 ± 0.2
348.14 K, w1 = 1	1060.68 ± 0.28
348.15 K, w1 = 0.3999	853.893 ± 0.19
348.15 K, w1 = 0.5001	885.244 ± 0.22
348.15 K, w1 = 0.7002	952.934 ± 0.2
348.15 K, w1 = 0.8001	987.083 ± 0.19
348.15 K, w1 = 0.8417	1001.85 ± 0.2
348.15 K, w1 = 0.8997	1023.57 ± 0.23
